Results from patent US20230096766A1, “AMINO ACID HAVING FUNCTIONAL GROUP CAPABLE OF INTERMOLECULAR HYDROGEN BONDING, PEPTIDE COMPOUND CONTAINING SAME AND METHOD FOR PRODUCTION THEREOF” (Chugai Seiyaku Kabushiki Kaisha, priority 2018, published 2023).
*1 amine or outer side, *2 acyl side, *3 side chain or, on linkers, in order; H or OH if unused. Where a SMILES comes first, the peptide text is derived from it. Bridges are numbered along the chain shown (N, C = ends). [ ]: non-standard residue; d: D form. The star is where a group is joined. NMeAbu(3,3-F2-piperidino) = CN[C@@H](CCN1CCCC(F)(F)C1)C(=O)O; NMeAbu(4-morpholino) = CN[C@@H](CCN1CCOCC1)C(=O)O; X10 = CN([C@@H](CCN1CCC(F)(F)CC1)C(=O)[*:2])[*:1]; Ala(4-thiazolyl) = N[C@@H](Cc1cscn1)C(=O)O; NMeF = CN[C@@H](Cc1ccccc1)C(=O)O; NMeGABA = CN(CCCC(=O)[*:2])[*:1]; NMeβAla = CN(CCC(=O)[*:2])[*:1]; NMeL = CN[C@@H](CC(C)C)C(=O)O; NMeV = CN[C@H](C(=O)O)C(C)C; NMeA = CN[C@@H](C)C(=O)O; Piperidide = C1CCN(*)CC1; NBuGly = CCCCNCC(=O)O; Isopentyl = CC(C)CC*; Sar = CNCC(=O)O; tBu = CC(C)(C)*

Experiment: in vitro
Settings: human

CC(C)C[C@@H]1NC(=O)[C@H](CC(C)C)N(C)C(=O)[C@H](CC(C)C)N(C)C(=O)CNC(=O)[C@H](Cc2ccccc2)N(C)C(=O)[C@H](Cc2cscn2)NC(=O)[C@H](CC(C)C)N(C)C(=O)[C@H](Cc2ccccc2)NC(=O)[C@H](C)NC(=O)C[C@@H](C(=O)N(C)[C@@H](Cc2ccccc2)C(=O)N[C@@H](C)C(=O)N2CCCCC2)NC1=O [pd235] (AF[NMeL][Ala(4-thiazolyl)][NMeF]G[NMeL][NMeL]LD[NMeF]A-Piperidide; lactam N-10)
Papp (Caco-2, Caco-2 (cm/sec) Papp): 0.1 ×10⁻⁶ cm/s

CC(C)C[C@H]1C(=O)N[C@@H](COC(C)(C)C)C(=O)N[C@@H]([C@@H](C)O)C(=O)N(C)[C@@H](Cc2ccccc2)C(=O)N[C@H](C(=O)N2CCCCC2)CC(=O)N[C@@H](C)C(=O)N(C)[C@@H](Cc2ccccc2)C(=O)N(C)[C@@H](C)C(=O)N(C)[C@@H](Cc2ccccc2)C(=O)N(C)[C@@H](CC(C)C)C(=O)N[C@@H](Cc2ccccc2)C(=O)N1C [pd237] (A[NMeF][NMeA][NMeF][NMeL]F[NMeL]S(tBu)T[NMeF]D-Piperidide; lactam N-11)
Papp (Caco-2, Caco-2 (cm/sec) Papp): 0.089 ×10⁻⁶ cm/s

CC[C@H](C)[C@@H]1NC(=O)[C@H](Cc2ccccc2)N(C)C(=O)[C@H](C)N(C)C(=O)[C@H](CC(C)C)N(C)C(=O)[C@H](Cc2ccccc2)N(C)C(=O)CCN(C)C(=O)C[C@@H](C(=O)N(C)[C@@H](Cc2ccccc2)C(=O)N(C)[C@@H](Cc2ccccc2)C(=O)N[C@@H](C)C(=O)N2CCCCC2)NC(=O)[C@H]([C@@H](C)O)NC(=O)[C@H](CC(C)C)N(C)C(=O)[C@H](CC(C)C)N(C)C1=O [pd239] ([NMeβAla][NMeF][NMeL][NMeA][NMeF]I[NMeL][NMeL]TD[NMeF][NMeF]A-Piperidide; lactam N-10)
Papp (Caco-2, Caco-2 (cm/sec) Papp): 0.065 ×10⁻⁶ cm/s

CC[C@H](C)[C@@H]1NC(=O)[C@H](Cc2ccccc2)N(C)C(=O)[C@H](C)N(C)C(=O)C[C@@H](C(=O)N(C)[C@@H](Cc2ccccc2)C(=O)N(C)[C@@H](Cc2ccccc2)C(=O)N[C@@H](C)C(=O)N2CCCCC2)NC(=O)[C@H](CC(C)C)N(C)C(=O)[C@H](Cc2ccccc2)N(C)C(=O)[C@H]([C@@H](C)O)NC(=O)[C@H](CC(C)C)N(C)C(=O)[C@H](CC(C)C)N(C)C(=O)[C@H](C)N(C)C1=O [pd240] ([NMeA][NMeF]I[NMeA][NMeL][NMeL]T[NMeF][NMeL]D[NMeF][NMeF]A-Piperidide; lactam N-10)
Papp (Caco-2, Caco-2 (cm/sec) Papp): 0.06 ×10⁻⁶ cm/s

CC(C)C[C@H]1C(=O)N(C)[C@@H](Cc2ccccc2)C(=O)N(C)[C@@H](CC(C)C)C(=O)N[C@H](C(=O)N(C)[C@@H](Cc2ccccc2)C(=O)N[C@@H](Cc2ccccc2)C(=O)N2CCCCC2)CC(=O)N[C@H](C(C)C)C(=O)N[C@@H](C)C(=O)N[C@@H]([C@@H](C)O)C(=O)N(C)[C@@H](C)C(=O)N[C@@H](Cc2ccccc2)C(=O)N1C [pd241] ([dV]AT[NMeA]F[NMeL][NMeF][NMeL]D[NMeF]F-Piperidide; lactam N-9)
Papp (Caco-2, Caco-2 (cm/sec) Papp): 0.058 ×10⁻⁶ cm/s

CC[C@H](C)[C@@H]1NC(=O)[C@H](Cc2ccccc2)N(C)C(=O)[C@H]([C@@H](C)O)NC(=O)[C@@H](C)NC(=O)C[C@@H](C(=O)N(C)[C@@H](Cc2ccccc2)C(=O)N(C)[C@@H](Cc2ccccc2)C(=O)N[C@@H](C)C(=O)N2CCCCC2)NC(=O)[C@H](CC(C)C)N(C)C(=O)[C@H](CC(C)C)N(C)C(=O)[C@H](Cc2ccccc2)N(C)C(=O)[C@H](CC(C)C)N(C)C(=O)[C@H](C)N(C)C1=O [pd242] ([dA]T[NMeF]I[NMeA][NMeL][NMeF][NMeL][NMeL]D[NMeF][NMeF]A-Piperidide; lactam N-10)
Papp (Caco-2, Caco-2 (cm/sec) Papp): 0.058 ×10⁻⁶ cm/s

CC(C)C[C@@H]1NC(=O)[C@H](Cc2ccccc2)N(C)C(=O)[C@H](COC(C)(C)C)NC(=O)[C@H](Cc2ccccc2)N(C)C(=O)[C@H](Cc2ccccc2)N(C)C(=O)[C@H](CC(C)C)N(C)C(=O)[C@@H](CC(C)C)NC(=O)C[C@@H](C(=O)N2CCCCC2)NC(=O)[C@H](Cc2ccccc2)N(C)C(=O)[C@H]([C@@H](C)O)NC(=O)[C@H](CC(C)C)N(C)C1=O [pd243] ([dL][NMeL][NMeF][NMeF]S(tBu)[NMeF]L[NMeL]T[NMeF]D-Piperidide; lactam N-11)
Papp (Caco-2, Caco-2 (cm/sec) Papp): 0.057 ×10⁻⁶ cm/s

CC(C)C[C@@H]1NC(=O)[C@H](Cc2ccccc2)N(C)C(=O)[C@H](CC(C)C)N(C)C(=O)[C@H](Cc2ccccc2)NC(=O)[C@H](C)NC(=O)C[C@@H](C(=O)N2CCCCC2)NC(=O)[C@H](Cc2ccccc2)N(C)C(=O)CN(C)C(=O)[C@H](Cc2ccccc2)NC(=O)[C@H](CC(C)C)N(C)C(=O)[C@H]([C@@H](C)O)NC1=O [pd244] (AF[NMeL][NMeF]LT[NMeL]F[Sar][NMeF]D-Piperidide; lactam N-11)
Papp (Caco-2, Caco-2 (cm/sec) Papp): 0.045 ×10⁻⁶ cm/s

CC(C)C[C@@H]1NC(=O)[C@H]([C@@H](C)O)NC(=O)[C@H](CC(C)C)N(C)C(=O)C[C@@H](C(=O)N2CCCCC2)NC(=O)[C@H](COC(C)(C)C)NC(=O)[C@H](Cc2ccccc2)NC(=O)[C@H](C)N(C)C(=O)[C@H](Cc2ccccc2)NC(=O)CN(C)C(=O)[C@H](Cc2ccccc2)N(C)C(=O)[C@H](Cc2ccccc2)N(C)C1=O [pd245] ([NMeL]TL[NMeF][NMeF][Sar]F[NMeA]FS(tBu)D-Piperidide; lactam N-11)
Papp (Caco-2, Caco-2 (cm/sec) Papp): 0.019 ×10⁻⁶ cm/s

CC(C)C[C@H]1C(=O)NCC(=O)N[C@H](C(=O)N(C)[C@@H](Cc2ccccc2)C(=O)N(C)[C@@H](Cc2ccccc2)C(=O)N[C@@H](C)C(=O)N2CCCCC2)CC(=O)N[C@@H](C)C(=O)N[C@@H]([C@@H](C)O)C(=O)N(C)[C@@H](C)C(=O)N(C)[C@@H](Cc2ccccc2)C(=O)N[C@@H](C(C)C)C(=O)N(C)[C@@H](Cc2ccccc2)C(=O)N1C [pd247] (AT[NMeA][NMeF]V[NMeF][NMeL]GD[NMeF][NMeF]A-Piperidide; lactam N-9)
Papp (Caco-2, Caco-2 (cm/sec) Papp): 0.087 ×10⁻⁶ cm/s

CCCCN1CC(=O)N(C)[C@@H](CC(C)C)C(=O)N[C@@H](COC(C)(C)C)C(=O)N(C)[C@@H](Cc2ccccc2)C(=O)N(C)[C@@H](C(C)C)C(=O)N[C@H](C(=O)N2CCCCC2)CC(=O)N[C@H](C)C(=O)N(C)[C@@H](Cc2ccccc2)C(=O)N[C@@H](CC(C)C)C(=O)N(C)[C@@H](CCN2CCCC(F)(F)C2)C(=O)N[C@@H]([C@@H](C)O)C1=O [pd386] ([dA][NMeF]L[NMeAbu(3,3-F2-piperidino)]T[NBuGly][NMeL]S(tBu)[NMeF][NMeV]D-Piperidide; lactam N-11)
Papp (Caco-2, Caco-2): 2.3 ×10⁻⁶ cm/s

CCCCN1CC(=O)N(C)[C@@H](C(C)C)C(=O)N[C@@H](CC(C)C)C(=O)N(C)[C@@H](Cc2ccccc2)C(=O)N(C)[C@@H](CCN2CCCC(F)(F)C2)C(=O)N[C@H](C(=O)N2CCCCC2)CC(=O)N[C@H](C)C(=O)N(C)[C@@H](Cc2ccccc2)C(=O)N[C@@H](CC(C)C)C(=O)N(C)[C@@H](CC(C)C)C(=O)N[C@@H]([C@@H](C)O)C1=O [pd388] ([dA][NMeF]L[NMeL]T[NBuGly][NMeV]L[NMeF][NMeAbu(3,3-F2-piperidino)]D-Piperidide; lactam N-11)
Papp (Caco-2, Caco-2): 1.9 ×10⁻⁶ cm/s

CC(C)C[C@@H]1NC(=O)[C@H](Cc2ccccc2)N(C)C(=O)[C@H](Cc2ccccc2)N(C)C(=O)[C@H](CC(C)C)NC(=O)[C@H](CC(C)C)N(C)C(=O)CCCN(C)C(=O)C[C@@H](C(=O)N2CCCCC2)NC(=O)[C@H](C)N(C)C(=O)[C@H](CCN2CCCC(F)(F)C2)N(C)C(=O)[C@H]([C@@H](C)O)NC(=O)[C@H](CC(C)C)N(C)C1=O [pd390] ([NMeGABA][NMeL]L[NMeF][NMeF]L[NMeL]T[NMeAbu(3,3-F2-piperidino)][NMeA]D-Piperidide; lactam N-11)
Papp (Caco-2, Caco-2): 2 ×10⁻⁶ cm/s

CC(C)C[C@@H]1NC(=O)[C@H](C)N(C)C(=O)C[C@@H](C(=O)N2CCCCC2)NC(=O)[C@H](C(C)C)N(C)C(=O)CN(C)C(=O)[C@H]([C@@H](C)O)NC(=O)[C@H](CCN2CCCC(F)(F)C2)N(C)C(=O)[C@H](Cc2ccccc2)N(C)C(=O)[C@H](CC(C)C)NC(=O)[C@H](Cc2ccccc2)N(C)C(=O)[C@H](CC(C)C)N(C)C1=O [pd391] ([NMeA]L[NMeL][NMeF]L[NMeF][NMeAbu(3,3-F2-piperidino)]T[Sar][NMeV]D-Piperidide; lactam N-11)
Papp (Caco-2, Caco-2): 2.4 ×10⁻⁶ cm/s

CCCCN1CC(=O)N(C)[C@@H](CCN2CCCC(F)(F)C2)C(=O)N[C@H](C(=O)N2CCCCC2)CC(=O)N(C)[C@@H](C)C(=O)N[C@@H](CC(C)C)C(=O)N(C)[C@@H](CC(C)C)C(=O)N(C)[C@@H](Cc2ccccc2)C(=O)N[C@@H](CC(C)C)C(=O)N(C)[C@@H](Cc2ccccc2)C(=O)N(C)[C@@H](C)C(=O)N[C@@H]([C@@H](C)O)C1=O [pd392] ([NMeA]L[NMeL][NMeF]L[NMeF][NMeA]T[NBuGly][NMeAbu(3,3-F2-piperidino)]D-Piperidide; lactam N-11)
Papp (Caco-2, Caco-2): 3.5 ×10⁻⁶ cm/s

CC(C)CCOC[C@@H]1NC(=O)[C@H](CCN2CCCC(F)(F)C2)N(C)C(=O)[C@H](Cc2ccccc2)N(C)C(=O)CN(C)C(=O)[C@H]([C@@H](C)O)NC(=O)[C@H](CC(C)C)N(C)C(=O)[C@H](CC(C)C)NC(=O)[C@H](Cc2ccccc2)N(C)C(=O)CN(C)C(=O)C[C@@H](C(=O)N2CCCCC2)NC(=O)[C@H](CC(C)C)N(C)C1=O [pd393] ([Sar][NMeF]L[NMeL]T[Sar][NMeF][NMeAbu(3,3-F2-piperidino)]S(Isopentyl)[NMeL]D-Piperidide; lactam N-11)
Papp (Caco-2, Caco-2): 2.8 ×10⁻⁶ cm/s

CCCCN1CC(=O)N(C)[C@@H](CC(C)C)C(=O)N[C@@H](CC(C)C)C(=O)N(C)[C@@H](Cc2ccccc2)C(=O)N(C)[C@@H](C)C(=O)N[C@H](C(=O)N2CCCCC2)CC(=O)N[C@H](C(C)C)C(=O)N(C)[C@@H](Cc2ccccc2)C(=O)N[C@@H](CC(C)C)C(=O)N(C)[C@@H](CCN2CCC(F)(F)CC2)C(=O)N[C@@H]([C@@H](C)O)C1=O [pd394] ([dV][NMeF]L[X10]T[NBuGly][NMeL]L[NMeF][NMeA]D-Piperidide; lactam N-11)
Papp (Caco-2, Caco-2): 1.8 ×10⁻⁶ cm/s

CCCCN1CC(=O)N(C)[C@@H](Cc2ccccc2)C(=O)N[C@@H](CC(C)C)C(=O)N(C)[C@@H](CC(C)C)C(=O)N[C@@H]([C@@H](C)O)C(=O)N(C)CC(=O)N(C)[C@@H](Cc2ccccc2)C(=O)N(C)[C@@H](CCN2CCC(F)(F)CC2)C(=O)N[C@@H](CC(C)C)C(=O)N(C)[C@@H](C(C)C)C(=O)N[C@H](C(=O)N2CCCCC2)CC1=O [pd395] ([NBuGly][NMeF]L[NMeL]T[Sar][NMeF][X10]L[NMeV]D-Piperidide; lactam N-11)
Papp (Caco-2, Caco-2): 1.7 ×10⁻⁶ cm/s

CCCCN1CC(=O)N(C)[C@@H](CC(C)C)C(=O)N[C@@H](COC(C)(C)C)C(=O)N(C)[C@@H](Cc2ccccc2)C(=O)N(C)[C@@H](C(C)C)C(=O)N[C@H](C(=O)N2CCCCC2)CC(=O)N[C@H](CC(C)C)C(=O)N(C)[C@@H](Cc2ccccc2)C(=O)N[C@@H](CC(C)C)C(=O)N(C)[C@@H](CCN2CCOCC2)C(=O)N[C@@H]([C@@H](C)O)C1=O [pd452] ([dL][NMeF]L[NMeAbu(4-morpholino)]T[NBuGly][NMeL]S(tBu)[NMeF][NMeV]D-Piperidide; lactam N-11)
Papp (Caco-2, Caco-2): 1.3 ×10⁻⁶ cm/s
